Source: PubChem BioAssay (NCI)
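Step 1: Grow cells in 96-well plates. Step 2: Expose to compound for 48 hours at 5 concentrations. Step 3: Interpolate endpoints linearly; if unreached, use highest concentration. GI50 marks 50% less growth. TGI denotes the concentration required for complete inhibition of growth.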

Assays:
Experiment in all cases: DTP human tumour cell line panel, 48 h
OVCAR-3 ovarian = test system: OVCAR-3 ovarian
NCI-H460 lung = test system: NCI-H460 lung
SNB-19 CNS = test system: SNB-19 CNS
MCF7 breast = test system: MCF7 breast
CAKI-1 renal = test system: CAKI-1 renal
786-0 renal = test system: 786-0 renal
A498 renal = test system: A498 renal
BT-549 breast = test system: BT-549 breast
DU-145 prostate = test system: DU-145 prostate
HCT-116 colon = test system: HCT-116 colon
MDA-MB-231 breast = test system: MDA-MB-231 breast
SK-MEL-28 melanoma = test system: SK-MEL-28 melanoma
EKVX NSCLC = test system: EKVX NSCLC
SF-268 CNS = test system: SF-268 CNS
NCI-H23 lung = test system: NCI-H23 lung
OVCAR-4 ovarian = test system: OVCAR-4 ovarian
SK-MEL-5 melanoma = test system: SK-MEL-5 melanoma
SN12C renal = test system: SN12C renal
HT29 colon = test system: HT29 colon
MOLT-4 leukemia = test system: MOLT-4 leukemia
SK-OV-3 ovarian = test system: SK-OV-3 ovarian
UACC-257 melanoma = test system: UACC-257 melanoma
LOX IMVI melanoma = test system: LOX IMVI melanoma
OVCAR-5 ovarian = test system: OVCAR-5 ovarian
KM12 colon = test system: KM12 colon
MDA-MB-468 breast = test system: MDA-MB-468 breast
T-47D breast = test system: T-47D breast
OVCAR-8 ovarian = test system: OVCAR-8 ovarian
IGROV1 ovarian = test system: IGROV1 ovarian
HOP-62 NSCLC = test system: HOP-62 NSCLC
HS 578T breast = test system: HS 578T breast
PC-3 prostate = test system: PC-3 prostate
SNB-75 CNS = test system: SNB-75 CNS
COLO 205 colon = test system: COLO 205 colon
A549 NSCLC = test system: A549 NSCLC
UACC-62 melanoma = test system: UACC-62 melanoma
MDA-MB-435 = test system: MDA-MB-435
UO-31 renal = test system: UO-31 renal
SW-620 colon = test system: SW-620 colon
CCRF-CEM leukemia = test system: CCRF-CEM leukemia
M14 melanoma = test system: M14 melanoma
SK-MEL-2 melanoma = test system: SK-MEL-2 melanoma
NCI-H522 lung = test system: NCI-H522 lung
SR leukemia = test system: SR leukemia
U251 CNS = test system: U251 CNS
HOP-92 NSCLC = test system: HOP-92 NSCLC
ACHN renal = test system: ACHN renal
HL-60(TB) leukemia = test system: HL-60(TB) leukemia
K-562 leukemia = test system: K-562 leukemia
NCI-H226 lung = test system: NCI-H226 lung
RPMI-8226 leukemia = test system: RPMI-8226 leukemia
HCT-15 colon = test system: HCT-15 colon
SF-295 CNS = test system: SF-295 CNS
TK-10 renal = test system: TK-10 renal
MALME-3M melanoma = test system: MALME-3M melanoma
HCC-2998 colon = test system: HCC-2998 colon
SF-539 CNS = test system: SF-539 CNS
RXF 393 renal = test system: RXF 393 renal

Question: `Nc1n[nH]c2cccc(C#Cc3cccc(NC(=O)Nc4cc(C(F)(F)F)cc(C(F)(F)F)c4)c3)c12` was tested. Which GI50 (OVCAR-3 ovarian) did it give?
Answer: 2670 nM

Question: And the TGI (OVCAR-3 ovarian)?
Answer: 8.06 µM

Question: What about the GI50 (NCI-H460 lung) of the same molecule?
Answer: 2040 nM

Question: What about the TGI (NCI-H460 lung) of the same molecule?
Answer: 5.14 µM

Question: And the GI50 (SNB-19 CNS)?
Answer: 7.62 µM

Question: What about the TGI (SNB-19 CNS) of the same molecule?
Answer: 21.2 µM

Question: And the GI50 (MCF7 breast)?
Answer: 2520 nM

Question: And the TGI (MCF7 breast)?
Answer: 7.36 µM

Question: And the GI50 (CAKI-1 renal)?
Answer: 2360 nM

Question: And the TGI (CAKI-1 renal)?
Answer: 11.5 µM

Question: What about the GI50 (786-0 renal) of the same molecule?
Answer: 2160 nM

Question: And the TGI (786-0 renal)?
Answer: 4.78 µM

Question: And the GI50 (A498 renal)?
Answer: 3.84 µM

Question: What about the TGI (A498 renal) of the same molecule?
Answer: 10.4 µM

Question: And the GI50 (BT-549 breast)?
Answer: 1970 nM

Question: What about the TGI (BT-549 breast) of the same molecule?
Answer: 5.3 µM

Question: What about the GI50 (DU-145 prostate) of the same molecule?
Answer: 3.5 µM

Question: What about the TGI (DU-145 prostate) of the same molecule?
Answer: 12.5 µM

Question: What about the GI50 (HCT-116 colon) of the same molecule?
Answer: 2070 nM

Question: And the TGI (HCT-116 colon)?
Answer: 5.64 µM

Question: And the GI50 (MDA-MB-231 breast)?
Answer: 1060 nM

Question: What about the TGI (MDA-MB-231 breast) of the same molecule?
Answer: 2450 nM

Question: What about the GI50 (SK-MEL-28 melanoma) of the same molecule?
Answer: 2760 nM

Question: What about the TGI (SK-MEL-28 melanoma) of the same molecule?
Answer: 8.6 µM

Question: What about the GI50 (EKVX NSCLC) of the same molecule?
Answer: 2710 nM

Question: What about the TGI (EKVX NSCLC) of the same molecule?
Answer: 8.02 µM

Question: What about the GI50 (SF-268 CNS) of the same molecule?
Answer: 3.2 µM

Question: And the TGI (SF-268 CNS)?
Answer: 14 µM

Question: And the GI50 (NCI-H23 lung)?
Answer: 2160 nM

Question: And the TGI (NCI-H23 lung)?
Answer: 5.44 µM

Question: What about the GI50 (OVCAR-4 ovarian) of the same molecule?
Answer: 2600 nM

Question: What about the TGI (OVCAR-4 ovarian) of the same molecule?
Answer: 8.39 µM

Question: And the GI50 (SK-MEL-5 melanoma)?
Answer: 1880 nM

Question: And the TGI (SK-MEL-5 melanoma)?
Answer: 3.69 µM

Question: And the GI50 (SN12C renal)?
Answer: 1520 nM

Question: What about the TGI (SN12C renal) of the same molecule?
Answer: 3.31 µM

Question: And the GI50 (HT29 colon)?
Answer: 1670 nM

Question: And the TGI (HT29 colon)?
Answer: 3.26 µM

Question: And the GI50 (MOLT-4 leukemia)?
Answer: 2770 nM

Question: And the TGI (MOLT-4 leukemia)?
Answer: 10.2 µM

Question: What about the GI50 (SK-OV-3 ovarian) of the same molecule?
Answer: 3.87 µM

Question: And the TGI (SK-OV-3 ovarian)?
Answer: 12.3 µM

Question: What about the GI50 (UACC-257 melanoma) of the same molecule?
Answer: 2590 nM

Question: And the TGI (UACC-257 melanoma)?
Answer: 8.44 µM

Question: What about the GI50 (LOX IMVI melanoma) of the same molecule?
Answer: 1600 nM

Question: What about the TGI (LOX IMVI melanoma) of the same molecule?
Answer: 2940 nM

Question: And the GI50 (OVCAR-5 ovarian)?
Answer: 2200 nM

Question: And the TGI (OVCAR-5 ovarian)?
Answer: 10.4 µM

Question: What about the GI50 (KM12 colon) of the same molecule?
Answer: 1850 nM

Question: What about the TGI (KM12 colon) of the same molecule?
Answer: 4.1 µM

Question: And the GI50 (MDA-MB-468 breast)?
Answer: 2220 nM

Question: What about the TGI (MDA-MB-468 breast) of the same molecule?
Answer: 6 µM

Question: And the GI50 (T-47D breast)?
Answer: 2730 nM

Question: And the TGI (T-47D breast)?
Answer: 11 µM

Question: And the GI50 (OVCAR-8 ovarian)?
Answer: 2930 nM

Question: What about the TGI (OVCAR-8 ovarian) of the same molecule?
Answer: 10 µM

Question: What about the GI50 (IGROV1 ovarian) of the same molecule?
Answer: 2660 nM

Question: And the TGI (IGROV1 ovarian)?
Answer: 7.78 µM

Question: What about the GI50 (HOP-62 NSCLC) of the same molecule?
Answer: 1930 nM

Question: What about the TGI (HOP-62 NSCLC) of the same molecule?
Answer: 4.25 µM

Question: And the GI50 (HS 578T breast)?
Answer: 1970 nM

Question: What about the TGI (HS 578T breast) of the same molecule?
Answer: 7.7 µM

Question: What about the GI50 (PC-3 prostate) of the same molecule?
Answer: 2230 nM

Question: And the TGI (PC-3 prostate)?
Answer: 6.96 µM

Question: And the GI50 (SNB-75 CNS)?
Answer: 287 nM

Question: And the TGI (SNB-75 CNS)?
Answer: 10.6 µM

Question: And the GI50 (COLO 205 colon)?
Answer: 1880 nM

Question: What about the TGI (COLO 205 colon) of the same molecule?
Answer: 4 µM

Question: What about the GI50 (A549 NSCLC) of the same molecule?
Answer: 2590 nM

Question: What about the TGI (A549 NSCLC) of the same molecule?
Answer: 11.3 µM

Question: What about the GI50 (UACC-62 melanoma) of the same molecule?
Answer: 2110 nM

Question: And the TGI (UACC-62 melanoma)?
Answer: 4.9 µM

Question: What about the GI50 (MDA-MB-435) of the same molecule?
Answer: 1920 nM

Question: What about the TGI (MDA-MB-435) of the same molecule?
Answer: 4.18 µM

Question: What about the GI50 (UO-31 renal) of the same molecule?
Answer: 3.11 µM

Question: What about the TGI (UO-31 renal) of the same molecule?
Answer: 10.3 µM

Question: What about the GI50 (SW-620 colon) of the same molecule?
Answer: 1960 nM

Question: What about the TGI (SW-620 colon) of the same molecule?
Answer: 3.8 µM

Question: What about the GI50 (CCRF-CEM leukemia) of the same molecule?
Answer: 3.27 µM

Question: What about the TGI (CCRF-CEM leukemia) of the same molecule?
Answer: 14.2 µM

Question: And the GI50 (M14 melanoma)?
Answer: 2020 nM

Question: And the TGI (M14 melanoma)?
Answer: 4.55 µM

Question: What about the GI50 (SK-MEL-2 melanoma) of the same molecule?
Answer: 1620 nM

Question: And the TGI (SK-MEL-2 melanoma)?
Answer: 3.34 µM

Question: And the GI50 (NCI-H522 lung)?
Answer: 2370 nM

Question: What about the TGI (NCI-H522 lung) of the same molecule?
Answer: 7.01 µM

Question: What about the GI50 (SR leukemia) of the same molecule?
Answer: 2580 nM

Question: What about the TGI (SR leukemia) of the same molecule?
Answer: 15.3 µM

Question: What about the GI50 (U251 CNS) of the same molecule?
Answer: 2300 nM

Question: What about the TGI (U251 CNS) of the same molecule?
Answer: 6.22 µM

Question: And the GI50 (HOP-92 NSCLC)?
Answer: 1900 nM

Question: And the TGI (HOP-92 NSCLC)?
Answer: 5.12 µM

Question: And the GI50 (ACHN renal)?
Answer: 2710 nM

Question: What about the TGI (ACHN renal) of the same molecule?
Answer: 9.39 µM

Question: And the GI50 (HL-60(TB) leukemia)?
Answer: 1810 nM

Question: What about the TGI (HL-60(TB) leukemia) of the same molecule?
Answer: 7.04 µM

Question: What about the GI50 (K-562 leukemia) of the same molecule?
Answer: 2720 nM

Question: And the TGI (K-562 leukemia)?
Answer: > 100 µM

Question: And the GI50 (NCI-H226 lung)?
Answer: 2820 nM

Question: What about the TGI (NCI-H226 lung) of the same molecule?
Answer: 9.34 µM

Question: What about the GI50 (RPMI-8226 leukemia) of the same molecule?
Answer: 2630 nM

Question: And the TGI (RPMI-8226 leukemia)?
Answer: 9.16 µM

Question: What about the GI50 (HCT-15 colon) of the same molecule?
Answer: 2480 nM

Question: What about the TGI (HCT-15 colon) of the same molecule?
Answer: 10.1 µM

Question: What about the GI50 (SF-295 CNS) of the same molecule?
Answer: 2320 nM

Question: And the TGI (SF-295 CNS)?
Answer: 6.83 µM

Question: What about the GI50 (TK-10 renal) of the same molecule?
Answer: 4.2 µM

Question: And the TGI (TK-10 renal)?
Answer: 12.9 µM

Question: What about the GI50 (MALME-3M melanoma) of the same molecule?
Answer: 1600 nM

Question: And the TGI (MALME-3M melanoma)?
Answer: 4.24 µM

Question: And the GI50 (HCC-2998 colon)?
Answer: 2310 nM

Question: And the TGI (HCC-2998 colon)?
Answer: 5.07 µM

Question: What about the GI50 (SF-539 CNS) of the same molecule?
Answer: 1520 nM

Question: And the TGI (SF-539 CNS)?
Answer: 4.28 µM

Question: And the GI50 (RXF 393 renal)?
Answer: 2550 nM

Question: What about the TGI (RXF 393 renal) of the same molecule?
Answer: 6.69 µM
